We go through 39 compounds from patent US20040106172A1, “Hydrolyzing/dehydration condensing enzymes, method for producing the enzyme and method for synthesizing amide by using the enzyme” (Okayama University, priority 2002, published 2004).

For series [1], the system named is purified enzyme (capsaicin hydrolysis activity). The series is described as follows: Effects of various reagents upon enzymatic activity (capsaicin hydrolysis). Type of series: biochemical, Streptomyces mobaraensis IFO 13819.
The test system of series [2] is Urethane hydrolase IV (strain F-86). The settings on record: cited from earlier work.
Series [3] has as its system Streptomyces mobaraensis (enzyme according to the invention). The series is described as follows: Hydrolysis of N-benzyloxycarbonyl-L-amino acids by the enzyme of the invention. The class given is biochemical. As for the experimental part:
An ability of hydrolyzing/dehydration condensing by the enzyme according to the invention is examined by using N-benzyloxycarbonyl-L-amino acid (Z-L-amino acid) as an amide. The reaction is performed by using […] of the enzyme in 0.2 ml of 50 mM tris-hydrochloric acid buffer solution containing 0.1 mM of CoCl2 as a solvent (pH: 7.5) under a condition that a final concentration of N-benzyloxycarbonyl-L-amino acid is 10 mM at 37° C. for 30 minutes (Z-L-Phe and Z-L-Tyr) or 1 hour (the other Z-L-amino acids).

In series [4] the test system is Penicillin Vacylase originated from Streptomyces lavendulae. Particulars: cited from earlier work; for Activity kcat: substrate of Streptomyces lavendulae Penicillin V acylase, Torres-Guzman et al. 2002.
The test system of series [5] is Streptomyces mobaraensis (enzyme according to the invention). The series is described as follows: Hydrolysis of antibiotic substances having an amide bond by the enzyme of the invention. The class given is biochemical. The settings on record: for hydrolyzing activity for the substrate: 10 mM antibiotic, pH 7.5, 37° C., 2 minutes, 0.1 mM CoCl2, 1 Unit = 1 μmol substrate hydrolyzed in 1 hour; for Activity kcat (approximate value): substrate of the enzyme according to the invention. The protocol:
The enzyme is examined on the hydrolysis of an antibiotic substance having an amide bond. As the antibiotic substance are used Penicillin G, Penicillin V and Ampicillin, respectively. The reaction is carried out at 37° C. for 2 minutes by using 20 μg of the enzyme in 0.1 ml of 50 mM tris-hydrochloric acid buffer solution containing 0.1 mM of CoCl2 as a solvent (pH: 7.5) under a condition that a final concentration of the antibiotic substance is 10 mM.
As a result, if the hydrolyzing activity for capsaicin at pH of 7.5 is 200 U/mg (Unit is defined as an amount of the enzyme required for hydrolyzing 1 μmol of the substrate at 37° C. for 1 hour), the activities for Penicillin G, Penicillin V and Ampicillin are 2200 U, 6000 U and 1000 U, respectively.
In order to show the utility of the enzyme according to the invention, it is compared with the existing Penicillin Vacylase originated from Streptomyces lavendulae (Raquel Torres-Guzman et al., Biochemical and Biophysical Research Communications, Vol. 291, 593-0597 (2002)) (compared with activity kcat (1/s)).

The nature of series [6]: pH dependency, heat stability and temperature dependency of the purified enzyme. Type of series: physicochemical, Streptomyces mobaraensis IFO 13819.
Series [7] has as its system Capsaicin hydrolyzing/dehydration condensing enzyme of the invention. The settings on record: fatty acid as substrate with vanillylamine; water/n-hexane two-phase system, 37° C.; HPLC of hexane phase. As for the experimental part:
(§1) The reaction temperature is 37° C.
(§2) As a comparative example, aminoacylase is used. The resulting capsaicin analog is quantitatively measured by HPLC analysis of the hexane phase.

The subject of the next series is Aminoacylase. The series is described as follows: Synthesis of capsaicin analogs from vanillylamine and fatty acids, comparative aminoacylase. The settings on record: comparative example; fatty acid as substrate with vanillylamine; water/n-hexane two-phase system, 37° C.; HPLC of hexane phase. Type of series: biochemical. The protocol:
as §1, §2

Setting [8] is: 10 mM Z-L-amino acid, pH 7.5, 37° C., 0.1 mM CoCl2.
Where [9] appears, read: reagent 1 mM, 0.13 mM capsaicin/50 mM tris-HCl (pH 7.5), control = 100.

Like-named read-outs stand apart in the source and are kept apart here.

For `O=C(O)CN(CCN(CC(=O)O)CC(=O)O)CC(=O)O` [EDTA], in series [1] (pH 7.5), the Relative activity worked out at 85.5%.

With `NC(=O)C[C@H](NC(=O)OCc1ccccc1)C(=O)O` [Z-Asn], the “Activity for the substrate” value in series [2] (Matsumura et al. 1985) is recorded as 138 Unit/mg; in series [3] (setting [8]) it was 12 Unit/mg.

Turning to `CC1(C)S[C@@H]2[C@H](NC(=O)COc3ccccc3)C(=O)N2[C@H]1C(=O)O` [Penicillin V], the Activity kcat in series [4] is 60.25 s⁻¹. Moreover, in series [5], the “hydrolyzing activity for the substrate” value was determined as 6000 U and the “Activity kcat (approximate value)” value was greater than 80 s⁻¹.

In the case of `COc1cc(CNC(=O)CCCC/C=C/C(C)C)ccc1O` [capsaicin], the “hydrolyzing activity for capsaicin” value in series [5] (pH 7.5, reference value for the antibiotic activities) was found to be 200 U/mg.

For the compound `O=C(O)c1cc[c]([Hg][Cl])cc1` [PCMB], in series [1] (setting [9]), the Relative activity is given as 96.6%.

`[Cl-].[Cl-].[Co+2]` [CoCl2]: in series [6], the “residual activity with added cobalt ion vs no cobalt ion” value is “higher”. Further, in series [1], the “effect on capsaicin hydrolysis activity of the purified enzyme” value is “enhanced”. The Relative activity in series [1] (pH 7.5) is on record as 145.5%.

Consider `N=C(N)NCCC[C@H](NC(=O)OCc1ccccc1)C(=O)O` [Z-Arg], for which the “Activity for the substrate” value in series [2] (Matsumura et al. 1985) is on record as 0 Unit/mg; in series [3] (setting [8]), 37 Unit/mg.

Consider `O=S(=O)([O-])[O-].[Mg+2]` [MgSO4], for which the Relative activity in series [1] (setting [9]) is recorded as 96.0%.

Regarding `NCCCC[C@H](NC(=O)OCc1ccccc1)C(=O)O` [Z-Lys], the “Activity for the substrate” value is listed as 0 Unit/mg in series [2] (Matsumura et al. 1985) and 38 Unit/mg in series [3] (setting [8]).

`O=C(NC(CSCc1ccccc1)C(=O)O)OCc1ccccc1` (stereo not shown) [Cys(Bzl)]: the figures for the “Activity for the substrate” value in series [2] (Matsumura et al. 1985) and in series [3] (setting [8]) were 228 Unit/mg and 250 Unit/mg, respectively.

Regarding `O=C(N[C@@H](Cc1ccc(O)cc1)C(=O)O)OCc1ccccc1` [Z-Tyr], the “Activity for the substrate” value is given as 0 Unit/mg in series [2] (Matsumura et al. 1985), “lower activity” in series [2], “high activity” in series [3] and 650 Unit/mg in series [3] (setting [8]).

On to `CCCCCCCCCCCCCC(=O)O` [Myristic acid], for which, in series [7], the “Synthesis of capsaicin analogs” value worked out at 0.24 mM.

With `[Ca+2].[Cl-].[Cl-]` [CaCl2], the Relative activity in series [1] (setting [9]) came to 101.6%.

With `N[C@@H](CS)C(=O)O` [L-Cys], the Relative activity in series [1] (setting [9]) is listed as 101.2%.

On to `O=C(NC(Cc1cnc[nH]1)C(=O)O)OCc1ccccc1` (stereo not shown) [Z-His], for which the “Activity for the substrate” value is 18 Unit/mg in series [2] (Matsumura et al. 1985) and 36 Unit/mg in series [3] (setting [8]).

On to `NC(=O)CC[C@H](NC(=O)OCc1ccccc1)C(=O)O` [Z-Gln], for which the “Activity for the substrate” value in series [2] (Matsumura et al. 1985) is recorded as 144 Unit/mg; in series [3] (setting [8]), 27 Unit/mg.

With `CCCCCCCCCCCC(=O)O` [Lauric acid], the entries for the “Synthesis of capsaicin analogs” value (in series [7]; in the series with Aminoacylase) were 1.25 mM and 0.051 mM, respectively.

For `O=C(O)C[C@H](NC(=O)OCc1ccccc1)C(=O)O` [Z-Asp], the “Activity for the substrate” value in series [2] (Matsumura et al. 1985) is recorded as 360 Unit/mg.

As for `C[C@H](NC(=O)OCc1ccccc1)C(=O)O` [Z-Ala], the “Activity for the substrate” value in series [2] (Matsumura et al. 1985) is given as 228 Unit/mg; in series [3] (setting [8]), 29 Unit/mg.

Turning to `O=C(O)CC[C@H](NC(=O)OCc1ccccc1)C(=O)O` [Z-Glu], the “Activity for the substrate” value was 246 Unit/mg in series [2] (Matsumura et al. 1985) and 12 Unit/mg in series [3] (setting [8]).

As for `CC(C)C[C@H](NC(=O)OCc1ccccc1)C(=O)O` [Z-Leu], the “Activity for the substrate” value in series [2] (Matsumura et al. 1985) is 1668 Unit/mg; in series [3] (setting [8]), 100 Unit/mg.

With `CC(C)C(NC(=O)OCc1ccccc1)C(=O)O` (stereo not shown) [Z-Val], the “Activity for the substrate” value was 84 Unit/mg in series [2] (Matsumura et al. 1985) and 43 Unit/mg in series [3] (setting [8]).

Regarding `O=S(=O)([O-])[O-].[Fe+2]` [FeSO4], the Relative activity in series [1] (setting [9]) came out at 88.8%.

Regarding `CC1(C)S[C@@H]2[C@H](NC(=O)Cc3ccccc3)C(=O)N2[C@H]1C(=O)O` [Penicillin G], in series [4], the “Activity for the substrate” value is “hardly an activity” and the Activity kcat was 3.4 s⁻¹. Further, in series [5], the “Activity for the substrate” value was “excellent activity”, the “hydrolyzing activity for the substrate” value came to 2200 U and the “Activity kcat (approximate value)” value was greater than 50 s⁻¹.

Turning to `C[C@@H](O)[C@H](NC(=O)OCc1ccccc1)C(=O)O` [Z-Thr], the “Activity for the substrate” value is given as 162 Unit/mg in series [2] (Matsumura et al. 1985) and 4.5 Unit/mg in series [3] (setting [8]).

For `O=C(O)CNC(=O)OCc1ccccc1` [Z-Gly], the entries for the “Activity for the substrate” value in series [2] (Matsumura et al. 1985) and in series [3] (setting [8]) were 108 Unit/mg and 0 Unit/mg, respectively.

As to `NC(=O)CI` [Idoacetoamide], in series [1] (setting [9]), the Relative activity stood at 86.5%.

Consider `O=[N+]([O-])[O-].[Ag+]` [AgNO3], for which the Relative activity in series [1] (setting [9]) is 100.1%.

For the compound `CCC(C)C(NC(=O)OCc1ccccc1)C(=O)O` (stereo not shown) [Z-Ile], the “Activity for the substrate” value is 18 Unit/mg in series [2] (Matsumura et al. 1985) and 28 Unit/mg in series [3] (setting [8]).

As for `O[C@@H](CS)[C@@H](O)CS` [DTT], the Relative activity in series [1] (setting [9]) came to 79.8%.

Consider `N[C@@H](CCC(=O)N[C@@H](CS)C(=O)NCC(=O)O)C(=O)O` [GSH], for which the Relative activity in series [1] (setting [9]) was found to be 99.8%.

With (NH4)6Mo7O24, the Relative activity in series [1] (setting [9]) was 88.7%.

As for `O=C(N[C@@H](Cc1ccccc1)C(=O)O)OCc1ccccc1` [Z-Phe], the “Activity for the substrate” value in series [2] (Matsumura et al. 1985) is reported as 54 Unit/mg; in series [2], “lower activity”; in series [3] it was “high activity”; in series [3] (setting [8]), 470 Unit/mg.

As to `CC1(C)S[C@@H]2[C@H](NC(=O)[C@H](N)c3ccccc3)C(=O)N2[C@H]1C(=O)O` [Ampicillin], in series [4], the “Activity for the substrate” value is on record as “hardly an activity” and the Activity kcat was 0 s⁻¹. In series [5], the “Activity for the substrate” value was “excellent activity”, the “hydrolyzing activity for the substrate” value came out at 1000 U and the “Activity kcat (approximate value)” value is greater than 17 s⁻¹.

In the case of `OCCS` [β-mercaptoethanol], in series [1] (reagent 10 mM, 0.13 mM capsaicin/50 mM tris-HCl (pH 7.5), control = 100), the Relative activity was 79.3%.

`O=S(=O)([O-])[O-].[Cu+2]` [CuSO4]: the Relative activity in series [1] (setting [9]) is on record as 96.9%.

Regarding `O=C(N[C@@H](CO)C(=O)O)OCc1ccccc1` [Z-Ser], the “Activity for the substrate” value in series [2] (Matsumura et al. 1985) is on record as 18 Unit/mg; in series [3] (setting [8]) it was 0 Unit/mg.

As to `[Cl-].[Cl-].[Zn+2]` [ZnCl2], the Relative activity in series [1] (setting [9]) was found to be 95.5%.

`CSCCC(NC(=O)OCc1ccccc1)C(=O)O` (stereo not shown) [Z-Met]: the “Activity for the substrate” value is 294 Unit/mg in series [2] (Matsumura et al. 1985) and 85 Unit/mg in series [3] (setting [8]).
